This note sets out measurements from ChEMBL document CHEMBL1141453, “Dissection of the recognition properties of p38 MAP kinase. Determination of the binding mode of a new pyridinyl-heterocycle inhibitor family” (J Med Chem, 2007).

As usually defined, the IC50 is the concentration at which inhibition is half-maximal.

The test is described as follows: Inhibition of p38 kinase.

As for `Fc1ccc(-c2nc3[nH]ncc3c(-c3ccc(F)cc3)c2-c2ccncc2)cc1`, the 50% inhibitory concentration (IC50) worked out at 161 nM.
